Test results: PubChem BioAssay (NCI)
Several values for one entry are separate records, joined by “and”; a condition that tells them apart may be missing. Identical values can stand only once.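 Grown in 96-well plates, cells were treated for 48 hours with each compound at five concentrations. Insufficient inhibition: endpoint recorded as highest concentration tested. Abbreviation: GI50, concentration required for 50% inhibition of growth. TGI denotes the concentration required for complete inhibition of growth.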

Tests used:
Test in all cases: inhibition of tumour cell growth, NCI panel, 48 h
SW-620 colon = system: SW-620 colon
SK-OV-3 ovarian = system: SK-OV-3 ovarian
K-562 leukemia = system: K-562 leukemia
SNB-19 CNS = system: SNB-19 CNS
UACC-257 melanoma = system: UACC-257 melanoma
HCT-116 colon = system: HCT-116 colon
U251 CNS = system: U251 CNS
NCI-H522 lung = system: NCI-H522 lung
NCI/ADR-RES ovarian = system: NCI/ADR-RES ovarian
BT-549 breast = system: BT-549 breast

Row | Compound | TGI (SW-620 colon) | TGI (SK-OV-3 ovarian) | TGI (K-562 leukemia) | TGI (SNB-19 CNS) | TGI (UACC-257 melanoma) | TGI (HCT-116 colon) | TGI (U251 CNS) | TGI (NCI-H522 lung) | GI50 (SW-620 colon) | GI50 (SK-OV-3 ovarian) | GI50 (K-562 leukemia) | GI50 (SNB-19 CNS) | GI50 (HCT-116 colon) | GI50 (NCI-H522 lung) | GI50 (U251 CNS) | GI50 (NCI/ADR-RES ovarian) | TGI (NCI/ADR-RES ovarian) | GI50 (BT-549 breast) | TGI (BT-549 breast) | GI50 (UACC-257 melanoma)
1 | CCCCNC(=S)OCCC(C)CCCC(C)C (centres undefined) | > 100 µM | > 100 µM | > 100 µM | > 100 µM | > 100 µM | > 100 µM | > 100 µM | – | – | – | – | – | – | – | – | – | – | – | – | –
2 | COc1cc(/C=C(\NC(=O)c2ccccc2)c2nc3ncncc3[nH]2)cc(OC)c1OC | > 100 µM | > 100 µM | > 100 µM | > 100 µM | – | – | > 100 µM | > 100 µM | – | – | – | – | – | – | – | – | – | – | – | –
3 | N#C/C(=C1\OC(=N)C(c2ccccc2)C1=O)c1ccccc1 (centres undefined) | 59.1 µM | > 100 µM | 74.6 µM | > 100 µM | 59.3 µM | 31.6 µM | > 100 µM | 22.2 µM | – | – | – | – | – | – | – | – | – | – | – | –
4 | COc1ccc(-c2cn(-c3ccc(OC)c(OC)c3)c(=O)[nH]2)cc1 | > 100 µM | > 100 µM | > 100 µM | > 100 µM | – | > 100 µM | > 100 µM | > 100 µM | > 100 µM | > 100 µM | 37.4 µM | > 100 µM | > 100 µM | > 100 µM | > 100 µM | 85.8 µM | > 100 µM | – | – | –
5 | O=C(CCC(=O)Nc1cccc(C(F)(F)F)c1)CC(=O)c1ccc2ccccc2c1 | > 100 µM | > 100 µM | > 100 µM | > 100 µM | > 100 µM | > 100 µM | > 100 µM | > 100 µM | – | – | – | – | – | – | – | – | – | – | – | –
6 | COc1ccccc1/C=C\C(=O)C1COCN1 (centres undefined) | 19.4 µM | 30.1 µM | > 100 µM | 33.9 µM | 34 µM | > 100 µM | 28.1 µM | 36.1 µM | – | – | – | – | – | – | – | – | 52.3 µM | – | – | –
7 | Nc1nc2c(-c3ccc([N+](=O)[O-])cc3)nnn2c2ccccc12 | > 100 µM | > 100 µM | > 100 µM | > 100 µM | – | – | 66.4 µM | – | – | – | – | – | – | – | – | – | – | – | – | –
8 | NS(=O)(=O)c1ccc(NC(=O)C2C(=O)C(=O)N(c3ccc(S(N)(=O)=O)cc3)C2=O)cc1 (centres undefined) | > 100 µM | > 100 µM | > 100 µM | > 100 µM | > 100 µM | > 100 µM | > 100 µM | > 100 µM | – | – | – | – | – | – | – | – | – | – | – | –
9 | CCOC(=O)c1[nH]c2cc(OC)c(OC)cc2c1CN(C)C | > 100 µM | > 100 µM | > 100 µM | > 100 µM | > 100 µM | > 100 µM | > 100 µM | – | – | – | – | – | – | – | – | – | – | – | – | –
10 | O=C(N=c1nc(NC(=O)c2ccccc2)ss1)c1ccccc1 | > 100 µM | 68.9 µM | > 100 µM | > 100 µM | 48.1 µM | > 100 µM | 37.1 µM | 42.4 µM | – | – | – | – | – | – | – | – | – | – | – | –
11 | O=C(Nc1cc(F)c(F)cc1C(=O)O)c1ccc(-n2ccnc2)nn1 | > 100 µM | > 100 µM | > 100 µM | > 100 µM | > 100 µM | > 100 µM | > 100 µM | – | > 100 µM | > 100 µM | 80.5 µM | > 100 µM | > 100 µM | – | > 100 µM | > 100 µM | > 100 µM | 81.9 µM | > 100 µM | > 100 µM
12 | COc1ccc(O)cc1C(O)c1ccccc1 (centres undefined) | > 100 µM | > 100 µM | > 100 µM | > 100 µM | > 100 µM | > 100 µM | > 100 µM | > 100 µM | – | – | – | – | – | – | – | – | – | – | – | –
13 | O=C(Nc1cc(Cl)ccc1O)c1cccc(Nc2ccnc(C(F)(F)F)c2)c1 | 18.5 µM | 25.3 µM | 12.4 µM | 13.8 µM | 16.7 µM | 17.6 µM | 83.4 µM | – | 4.32 µM | 3.3 µM | 0.713 µM | 2.42 µM | 2.22 µM | – | 3.05 µM | 2.67 µM | 14.1 µM | 2.18 µM | 12.6 µM | 4.63 µM
14 | CCN(CC)c1ccc(-c2cc(-c3cc(OC)c(OC)c(OC)c3)nc(N3CCC(O)CC3)c2C#N)cc1 | 12.7 µM | > 31.6 µM | 2.13 µM | 7.42 µM | – | 1.71 µM | 1.8 µM | – | 0.448 µM | 1.8 µM | 0.353 µM | 1.72 µM | 0.281 µM | – | 0.398 µM | 0.272 µM | 5.95 µM | 0.911 µM | 3.89 µM | –
15 | CC1C=CC(C(N)C(=O)O)O1 (centres undefined) | > 100 µM | > 100 µM | > 100 µM | > 100 µM | – | > 100 µM | > 100 µM | > 100 µM | – | – | – | – | – | – | – | – | – | – | – | –
16 | CC(C)COC1Sc2ccccc2S1 | 88.3 µM | 43.2 µM | – | 32.8 µM | – | – | 35.9 µM | – | – | – | – | – | – | – | – | – | – | – | – | –
17 | CCCCCCCCCCCCCCCC(=O)OCCOCCOCCOCCOCCOC(=O)CCCCCCCCCCCCCCC | > 100 µM | > 100 µM | > 100 µM | > 100 µM | > 100 µM | > 100 µM | > 100 µM | > 100 µM | – | – | – | – | – | – | – | – | – | – | – | –
18 | CCCCCCCCCCCCN=C(N)c1ccc(N2CCN(c3ccc(C(N)=NCCCCCCCCCCCC)cc3)CC2)cc1 | 28.1 µM | 34.1 µM | > 50 µM | 20.5 µM | > 50 µM | 13.8 µM | 24.9 µM | 31.2 µM | 9.31 µM | 19.5 µM | 6.82 µM | 11 µM | 6.9 µM | 3.42 µM | 11.3 µM | 33.3 µM | > 50 µM | – | – | 26.1 µM
19 | O=C(Nc1ccc(Cl)cc1C(=O)O)c1ccc([N+](=O)[O-])cc1 | > 100 µM | 56.5 µM | 90.4 µM | > 100 µM | 48 µM | 36.9 µM | 51.1 µM | – | – | – | – | – | – | – | – | – | – | – | – | –
20 | O=C(Nc1cc(Cl)cc(Cl)c1)c1cccc(NC2=C(Cl)C(=O)N(Cc3ccccc3)C2=O)c1 | – | > 100 µM | > 100 µM | > 100 µM | – | > 100 µM | > 100 µM | > 100 µM | – | 33.6 µM | 7.89 µM | 54 µM | 12 µM | 28.5 µM | 15.6 µM | 30.3 µM | > 100 µM | – | – | –
21 | COc1cc2c3c(n(CCCNCCCNCCN)c(=O)c2cc1OC)-c1cc2c(cc1C3=O)OCO2 | > 100 µM | > 100 µM | – | > 100 µM | > 100 µM | 57.9 µM | 44.2 µM | 85.1 µM | 30.8 µM | > 100 µM | – | 53.9 µM | 23 µM | 15.3 µM | 18 µM | – | – | – | – | > 100 µM
22 | COCCc1n(Cc2ccc3ccccc3c2)c2ccccc2[n+]1Cc1ccc2ccccc2c1 | 2.59 µM | 2.59 µM | – | – | 1.77 µM | – | – | – | 1.11 µM | 1.28 µM | – | – | – | – | – | 11.2 µM | 53 µM | – | – | 0.456 µM
23 | CC1=CP(=O)(c2ccccc2)C=C(C)C1=C(Cl)Cl (centres undefined) | 16.6 µM | 72.3 µM | 13.6 µM | 32.8 µM | – | 10.1 µM | 19.8 µM | 7.23 µM | – | – | – | – | – | – | – | – | – | – | – | –
24 | C[N+](C)(C)c1cc[c]([Sn]([c]2ccc([N+](C)(C)C)cc2)([c]2ccc([N+](C)(C)C)cc2)[c]2ccc([N+](C)(C)C)cc2)cc1 | > 100 µM | > 100 µM | > 100 µM | > 100 µM | > 100 µM | > 100 µM | > 100 µM | > 100 µM | > 100 µM | > 100 µM | > 100 µM | > 100 µM | > 100 µM | > 100 µM | > 100 µM | – | – | – | – | > 100 µM
25 | O=C1C=C2CCCC2C(C(=O)O)(C(=O)O)C1 (centres undefined) | > 100 µM | > 100 µM | > 100 µM | > 100 µM | > 100 µM | > 100 µM | > 100 µM | > 100 µM | – | – | – | – | – | – | – | – | – | – | – | –
26 | COc1ccc2c(c1)/C(=C\c1c(-c3cc(OC)ccc3OC)nc3sccn13)C(=O)N2 | – | 24.6 µM | – | 3.54 µM | 4.43 µM | 3.48 µM | 24.5 µM | – | – | 9.29 µM | 5.88 µM | 1.72 µM | 1.42 µM | – | 9.76 µM | 4.83 µM and 1.7 µM | 3.39 µM | 4.67 µM | – | 2.17 µM
27 | CCN1C(=O)N(CC)C2C1NN=c1s/c(=C3\C(=O)N(C4CCCC4)c4ccccc43)c(=O)n12 (centres undefined) | > 100 µM | 27.8 µM | > 100 µM | 40.5 µM | – | – | 15.6 µM | 5.57 µM | 0.551 µM | 2.45 µM | 0.37 µM | 3.47 µM | – | 0.573 µM | 1.57 µM | – | – | 2.03 µM | 7.84 µM | –
28 | COc1ccc(/C=C/C(=O)c2c(-c3ccccc3)nn(C)c(=O)c2N2CCOCC2)cc1 | > 100 µM | > 100 µM | > 100 µM | > 100 µM | – | > 100 µM | > 100 µM | > 100 µM | – | – | – | – | – | – | – | – | – | – | – | –
29 | CCOC(=O)c1c(C)nc2c(c1N)/C(=C/c1ccccn1)C(=O)N2Cc1ccccc1 | 2.31 µM | > 50 µM | > 50 µM | 2.49 µM | – | 1.62 µM | 1.72 µM | 2.89 µM | 1 µM | 3.08 µM | 1.77 µM | 1.09 µM | 0.847 µM | 1.06 µM | 0.948 µM | – | – | 1.11 µM | 3.09 µM | –
30 | NCCCNc1nc2ccccc2c2c(=O)c3cccc(Cl)c3sc12 | – | 2.92 µM | – | – | – | 2.7 µM | – | 3.6 µM | – | 1.45 µM | – | – | 1.34 µM | 1.76 µM | – | 1.71 µM | 3.25 µM | 1.45 µM | 2.81 µM | –
